Assay results reported in patent US20240166693A1, “METHODS AND COMPOUNDS FOR MODULATING MYOTONIC DYSTROPY 1” (Design Therapeutics, Inc., priority 2020, published 2024).
Where two headings read alike, the source gives them in different places.

System: Myotonic Dystrophy 1 affected patient fibroblasts (Coriell GM04602; 1600 CTG repeats)
Assay: DM1 foci reduction assay (CAG10-Cy3 FISH, average foci per nucleus)
Type: cell-based
Settings: Homo sapiens, Fibroblast
Experimental: DM1 foci reduction assay methods: Myotonic Dystrophy 1 affected patient fibroblasts (Coriell GM04602; 1600 CTG repeats) and wild type fibroblasts (Coriell GM07492; control line) were cultured separately in Gibco DMEM (1×)+4.5 g/L D-Glucose+L-Glutamine+110 mg/L Sodium Pyruvate, supplemented with 10% FBS and 1× Pen/Strep. Cells were maintained in incubator at 37° C. and 5% CO2 with media refresh every 48-72 hours.
At 90-95% confluency, both cell lines were harvested using Trypl-E then pelleted at 500×g for 5 minutes and were resuspended in media. DM1 fibroblasts were seeded in Agilent 96 well black plates at a density of 5,000 cells/well in 200 μL media; 8 wells were reserved for control fibroblasts. Plates were returned to incubator for 24 hours at 37° C. and 5% CO2.
Compounds were diluted from 10 mM stock to 1 mM in DMSO, then diluted once more to 6 μM (2× concentration) in media. Media was removed from all plates and cells were replenished with 100 μL media. Cells were treated in 8-point dose response, 1:3 fold dilution, 3 μM top dose via addition of 100 μL of 6 μM (2× concentration) compound to the 100 μL media with cells. Plates were returned to incubator for 48-hour time-course experiment at 37° C. and 5% CO2.
Following treatment, compounds were removed, and plates were washed with PBS, then cells were fixed in 75 μL 4% PFA solution for 20 minutes at room temperature. Plates were washed twice with PBS and twice with cold 70% ethanol before permeabilization with 250 μL cold 70% ethanol for 24-72 hours at −20° C.
After permeabilization, plates were washed once with a 30% formamide and 2×SSC buffer and rehydrated in that buffer for 15 minutes at room temperature. Cells were incubated overnight at 37° C. in 75 μL of a hybridization solution containing 30% formamide, 2×SSC, 25 mg/mL dextran sulfate, 2.5 mg/mL BSA, 0.2 μg/mL Herring sperm DNA, 2 mM vanadyl-ribonucleoside complex, and 5 nM CAG10-Cy3 probe.
Plates were washed once with 30% formamide in 2×SSC buffer, then twice with the buffer for 30 minutes at 37° C., 300 RPM in an incubating plate shaker. Cells were stained with 75 μL of 2.5 μg/mL DAPI in PBS for 5 minutes at room temperature. Plates were then washed twice with PBS and stored in 250 μL PBS. Plates were sealed with adhesive foil and wiped down with 70% ethanol.
Cells were imaged on a Cytation5 with a 20× objective sampling from 4 areas of each well. Nuclei were captured under DAPI channel and foci under RFP channel. Plates were analyzed on an average foci per nucleus per well basis.

[1] = 48 h, read-out: Foci Reduction in Fibroblast EC50, 48 h (nM)
[2] = DM1 fibroblasts, 48 h treatment, 8-point dose response, 3 μM top dose, read-out: Foci Reduction in Fibroblast EC50, 48 h

CC(C)C[C@H](NC(=O)[C@H](C)NC(=O)[C@H](Cc1ccccc1)NC(=O)c1ccc(C(C)(C)C)cc1)C(=O)N[C@@H](CCCCN(C)C1CC2CCC1C2)C(=O)N[C@@H](CO)C(=O)NCCOCCOCCOCCOCCOCCNC(=O)CCNC(=O)c1nc(NC(=O)c2cc(NC(=O)CCNC(=O)c3nc(NC(=O)CCCNC(=O)c4cc(NC(=O)c5nc(NC(=O)CCNC(=O)c6cc(NC(=O)c7nccn7C)cn6C)cn5C)cn4C)cn3C)cn2C)cn1C (stereo partly shown) [Compound 59]
EC50 [1]: 100 to 500 nM

CCN(CC)CCCC[C@H](NC(=O)[C@H](CC(C)C)NC(=O)[C@H](C)NC(=O)[C@H](Cc1ccccc1)NC(=O)c1ccc(C(C)(C)C)cc1)C(=O)N[C@@H](CO)C(=O)NCCOCCOCCNC(=O)c1cc(NC(=O)c2cc(NC(=O)c3nc(NC(=O)c4cc(NC(=O)[C@@H](N)CCNC(=O)c5nc(NC(=O)c6cc(NC(=O)c7cc(NC(=O)c8nccn8C)cn7C)cn6C)cn5C)cn4C)cn3C)cn2C)cn1C [Compound 78]
EC50 [1]: > 500 nM

Cn1cc(NC(=O)c2cc(NC(=O)c3nc(NC(=O)c4cc(NC(=O)[C@@H](N)CCNC(=O)c5nc(NC(=O)CCNC(=O)c6cc(NC(=O)c7nccn7C)cn6C)cn5C)cn4C)cn3C)cn2C)cc1C(=O)NCCOCCOCCOCCOCCOCCN1CCC(C(=O)Nc2ncc(SCc3ncc(C(C)(C)C)o3)s2)CC1 [Compound 120]
EC50 [2]: > 500 nM

CCN(CC)CCCC[C@H](NC(=O)[C@H](CC(C)C)NC(=O)[C@H](C)NC(=O)[C@H](Cc1ccccc1)NC(=O)c1ccc(C(C)(C)C)cc1)C(=O)N[C@@H](CO)C(=O)NCCOCCOCCOCCOCCOCCNC(=O)c1nc(NC(=O)CCNC(=O)c2cc(NC(=O)c3nc(NC(=O)[C@@H](CCNC(=O)c4cc(NC(=O)c5nc(NC(=O)c6cc(NC(=O)c7cccn7C)cn6C)cn5C)cn4C)NC(C)=O)cn3C)cn2C)cn1C [Compound 109]
EC50 [1]: > 500 nM

CN(CCCC[C@H](NC(=O)COCCOCCNC(=O)c1ccc(C(C)(C)C)cc1)C(=O)N[C@@H](CO)C(=O)NCCOCCOCCOCCOCCOCCNC(=O)CCNC(=O)c1nc(NC(=O)c2cc(NC(=O)CCNC(=O)c3nc(NC(=O)CCCNC(=O)c4cc(NC(=O)c5nc(NC(=O)CCNC(=O)c6cc(NC(=O)c7nccn7C)cn6C)cn5C)cn4C)cn3C)cn2C)cn1C)C1CC2CCC1C2 (stereo partly shown) [Compound 68]
EC50 [1]: 100 to 500 nM

CCCCN(Cc1ccc(C(=O)NO)cc1)C(=O)Nc1ccc(OCc2cn(CCOCCOCCNC(=O)CCNC(=O)c3nc(NC(=O)c4cc(NC(=O)CCNC(=O)c5nc(NC(=O)CCCNC(=O)c6cc(NC(=O)c7nc(NC(=O)CCNC(=O)c8cc(NC(=O)c9nccn9C)cn8C)cn7C)cn6C)cn5C)cn4C)cn3C)nn2)cc1 [Compound 127]
EC50 [2]: > 500 nM

CCN(CC)CCCC[C@H](NC(=O)[C@H](CC(C)C)NC(=O)[C@H](C)NC(=O)[C@H](Cc1ccccc1)NC(=O)c1ccc(C(C)(C)C)cc1)C(=O)N[C@@H](CO)C(=O)N(C)CCOCCOCCNC(=O)CCNC(=O)c1nc(NC(=O)c2cc(NC(=O)CCNC(=O)c3nc(NC(=O)CCCNC(=O)c4cc(NC(=O)c5nc(NC(=O)CCNC(=O)c6cc(NC(=O)c7nccn7C)cn6C)cn5C)cn4C)cn3C)cn2C)cn1C [Compound 75]
EC50 [1]: < 100 nM

CCN(CC)CCCC[C@H](NC(=O)[C@H](CC(C)C)NC(=O)[C@H](C)NC(=O)[C@H](Cc1ccccc1)NC(=O)c1ccc(C(C)(C)C)cc1)C(=O)N[C@@H](CO)C(=O)NCCOCCOCCOCCOCCOCCNC(=O)c1cc(NC(=O)c2cc(NC(=O)c3nc(NC(=O)c4cc(NC(=O)CCCNC(=O)c5nc(NC(=O)CCNC(=O)c6cc(NC(=O)c7nccn7C)cn6C)cn5C)cn4C)cn3C)cn2C)cn1C [Compound 113]
EC50 [1]: > 500 nM

CCN(c1cc(-c2ccc(CN3CCN(CCOCCOCCOCCOCCOCCNC(=O)CCNC(=O)c4nc(NC(=O)c5cc(NC(=O)CCNC(=O)c6nc(NC(=O)CCCNC(=O)c7cc(NC(=O)c8nc(NC(=O)CCNC(=O)c9cc(NC(=O)c%10nccn%10C)cn9C)cn8C)cn7C)cn6C)cn5C)cn4C)CC3)cc2)cc(C(=O)NCc2c(C)cc(C)[nH]c2=O)c1C)C1CCOCC1 [Compound 166]
EC50 [2]: > 500 nM

CCN(CC)CCCC[C@H](NC(=O)COCCOCCNC(=O)c1ccc(C(C)(C)C)cc1)C(=O)N[C@@H](CO)C(=O)NCCOCCOCCOCCOCCOCCNC(=O)CCNC(=O)c1nc(NC(=O)c2cc(NC(=O)CCNC(=O)c3nc(NC(=O)CCCNC(=O)c4cc(NC(=O)c5nc(NC(=O)CCNC(=O)c6cc(NC(=O)c7nccn7C)cn6C)cn5C)cn4C)cn3C)cn2C)cn1C [Compound 66]
EC50 [1]: 100 to 500 nM

CCN(CC)CCCC[C@H](NC(=O)[C@H](CC(C)C)NC(=O)[C@H](C)NC(=O)[C@H](Cc1ccccc1)NC(=O)c1ccc(C(C)(C)C)cc1)C(=O)N[C@@H](CO)C(=O)NCCOCCOCCN(C)C(=O)CCNC(=O)c1nc(NC(=O)c2cc(NC(=O)CCNC(=O)c3nc(NC(=O)CCCNC(=O)c4cc(NC(=O)c5nc(NC(=O)CCNC(=O)c6cc(NC(=O)c7nccn7C)cn6C)cn5C)cn4C)cn3C)cn2C)cn1C [Compound 74]
EC50 [1]: < 100 nM

CCN(CC)CCCC[C@H](NC(=O)[C@H](CC(C)C)NC(=O)[C@H](C)NC(=O)[C@H](Cc1ccccc1)NC(=O)c1ccc(C(C)(C)C)cc1)C(=O)N[C@@H](CO)C(=O)NCCOCCOCCOCCOCCOCCNC(=O)c1nc(NC(=O)CCNC(=O)c2cc(NC(=O)c3nc(NC(=O)[C@H](N)CCNC(=O)c4cc(NC(=O)c5nc(NC(=O)c6cc(NC(=O)c7cccn7C)cn6C)cn5C)cn4C)cn3C)cn2C)cn1C [Compound 108]
EC50 [1]: 100 to 500 nM

CC(C)C[C@H](NC(=O)[C@H](Cc1ccccc1)NC(=O)[C@H](CCCCN(C)C(C)C)NC(=O)[C@@H]1C[C@@H]2CCCC[C@@H]2N1)C(=O)NCCOCCOCCOCCOCCOCCNC(=O)CCNC(=O)c1nc(NC(=O)c2cc(NC(=O)CCNC(=O)c3nc(NC(=O)CCCNC(=O)c4cc(NC(=O)c5nc(NC(=O)CCNC(=O)c6cc(NC(=O)c7nccn7C)cn6C)cn5C)cn4C)cn3C)cn2C)cn1C [Compound 145]
EC50 [1]: 100 to 500 nM

CCN(CC)CCCC[C@H](NC(=O)COCCOCCOCCNC(=O)c1ccc(C(C)(C)C)cc1)C(=O)N[C@@H](CO)C(=O)NCCOCCOCCOCCOCCOCCNC(=O)CCNC(=O)c1nc(NC(=O)c2cc(NC(=O)CCNC(=O)c3nc(NC(=O)CCCNC(=O)c4cc(NC(=O)c5nc(NC(=O)CCNC(=O)c6cc(NC(=O)c7nccn7C)cn6C)cn5C)cn4C)cn3C)cn2C)cn1C [Compound 140]
EC50 [1]: 100 to 500 nM

COc1c(OCCOCCOCCOCCOCCOCCNC(=O)CCNC(=O)c2nc(NC(=O)c3cc(NC(=O)CCNC(=O)c4nc(NC(=O)CCCNC(=O)c5cc(NC(=O)c6nc(NC(=O)CCNC(=O)c7cc(NC(=O)c8nccn8C)cn7C)cn6C)cn5C)cn4C)cn3C)cn2C)cccc1C(=O)N1CCN(C(=O)COc2cccc(C)c2)CC1 [Compound 94]
EC50 [2]: > 500 nM

CCN(CC)CCCC[C@H](NC(=O)Cc1nc2cc(CC(=O)Nc3ccc(C(C)(C)C)cc3)cnc2[nH]1)C(=O)N[C@@H](CO)C(=O)NCCOCCOCCOCCOCCOCCNC(=O)CCNC(=O)c1nc(NC(=O)c2cc(NC(=O)CCNC(=O)c3nc(NC(=O)CCCNC(=O)c4cc(NC(=O)c5nc(NC(=O)CCNC(=O)c6cc(NC(=O)c7nccn7C)cn6C)cn5C)cn4C)cn3C)cn2C)cn1C [Compound 152]
EC50 [1]: 100 to 500 nM

CC(C)C[C@H](NC(=O)[C@H](C)NC(=O)[C@H](Cc1ccccc1)NC(=O)c1ccc(C(C)(C)C)cc1)C(=O)N[C@@H](CCCCN(C)C1CC2CCC1C2)C(=O)N[C@@H](CO)C(=O)NCCOCCOCCOCCOCCOCCOCCOCCOCCOCCOCCNC(=O)c1cc(NC(=O)c2cc(NC(=O)c3nc(NC(=O)c4cc(NC(=O)[C@@H](N)CCNC(=O)c5nc(NC(=O)c6cc(NC(=O)c7cc(NC(=O)c8nccn8C)cn7C)cn6C)cn5C)cn4C)cn3C)cn2C)cn1C (stereo partly shown) [Compound 119]
EC50 [1]: > 500 nM

CCN(CC)CCCC[C@H](NC(=O)[C@H](CC(C)C)NC(=O)[C@H](C)NC(=O)[C@H](Cc1ccccc1)NC(=O)c1ccc(C(C)(C)C)cc1)C(=O)N[C@@H](CO)C(=O)NCCOCCOCCOCCNC(=O)CCNC(=O)c1nc(NC(=O)c2cc(NC(=O)CCNC(=O)c3nc(NC(=O)CCCNC(=O)c4cc(NC(=O)c5nc(NC(=O)CCNC(=O)c6cc(NC(=O)c7nccn7C)cn6C)cn5C)cn4C)cn3C)cn2C)cn1C [Compound 73]
EC50 [1]: < 100 nM

CCN(CC)CCCC[C@H](NC(=O)[C@H](CC(C)C)NC(=O)[C@H](C)NC(=O)[C@H](Cc1ccccc1)NC(=O)c1ccc(C(C)(C)C)cc1)C(=O)N[C@@H](CO)C(=O)NCCOCCOCCOCCOCCOCCNC(=O)c1cc(NC(=O)c2nc(NC(=O)c3cc(NC(=O)[C@@H](N)CCNC(=O)c4nc(NC(=O)c5cc(NC(=O)c6cc(NC(=O)c7nccn7C)cn6C)cn5C)cn4C)cn3C)cn2C)cn1C [Compound 57]
EC50 [1]: > 500 nM
